Measurements published in article doi:10.1101/2024.08.29.610163v8, “Structural Snapshots of B12-Dependent Methionine Synthase’s Catalytic Conformations” (biorxiv, 2026).
Numbering of substitutions follows the chain as printed.

Experiments:
tMS^HcyFol = target: T1, tMS^HcyFol (Thermus thermophilus, UniProt Q5SKM5); assay: UV-Vis methylcobalamin consumption; assay type: biochemical; conditions: 100 µM homocysteine; 23 µM CapCob-bound MeCbl or 20 µM free MeCbl; 2 µM enzyme; pH 7.4, 0.5 mM TCEP, 50 °C
T1 construct: gene TTHA0618; Hcy-Fol didomain; N-terminal His6-TEV tag, no cut described; E. coli BL21star(DE3)
T1 sequence (Q5SKM5 1-640 limits assumed): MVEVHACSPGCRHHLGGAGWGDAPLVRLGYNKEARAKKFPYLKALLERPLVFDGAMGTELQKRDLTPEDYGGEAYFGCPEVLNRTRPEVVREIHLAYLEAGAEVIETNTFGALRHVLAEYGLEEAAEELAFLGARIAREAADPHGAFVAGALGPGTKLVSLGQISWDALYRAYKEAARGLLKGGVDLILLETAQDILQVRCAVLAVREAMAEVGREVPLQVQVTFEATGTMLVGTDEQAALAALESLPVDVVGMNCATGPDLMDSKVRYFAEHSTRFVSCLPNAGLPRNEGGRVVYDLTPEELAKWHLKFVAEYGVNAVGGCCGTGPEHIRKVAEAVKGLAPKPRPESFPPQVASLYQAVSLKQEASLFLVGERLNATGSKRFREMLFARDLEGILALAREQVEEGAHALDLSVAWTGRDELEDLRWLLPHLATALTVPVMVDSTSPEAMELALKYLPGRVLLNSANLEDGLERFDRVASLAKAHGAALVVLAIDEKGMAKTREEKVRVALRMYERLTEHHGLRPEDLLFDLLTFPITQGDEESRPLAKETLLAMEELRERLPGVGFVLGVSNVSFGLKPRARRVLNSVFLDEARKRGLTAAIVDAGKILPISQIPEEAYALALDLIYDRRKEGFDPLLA

tMS^HcyFolCapCob [1] = target: T2, tMS^HcyFolCapCob (Thermus thermophilus, UniProt Q5SKM5, F110A/E123A/E124A/Y296A/D651A/P652A/G653A); assay: X-ray crystal structure, […] Å; assay type: binding; conditions: pre-Hcy-on, prCbl holoenzyme, mutant 1
T2 construct: gene TTHA0618; Hcy-Fol-Cap-Cob tetradomain, lacks Act domain; N-terminal His6 tag cut with TEV; about 95 kDa monomer; E. coli BL21star(DE3)
T2 sequence (Q5SKM5 1-877 F110A/E123A/E124A/Y296A/D651A/P652A/G653A): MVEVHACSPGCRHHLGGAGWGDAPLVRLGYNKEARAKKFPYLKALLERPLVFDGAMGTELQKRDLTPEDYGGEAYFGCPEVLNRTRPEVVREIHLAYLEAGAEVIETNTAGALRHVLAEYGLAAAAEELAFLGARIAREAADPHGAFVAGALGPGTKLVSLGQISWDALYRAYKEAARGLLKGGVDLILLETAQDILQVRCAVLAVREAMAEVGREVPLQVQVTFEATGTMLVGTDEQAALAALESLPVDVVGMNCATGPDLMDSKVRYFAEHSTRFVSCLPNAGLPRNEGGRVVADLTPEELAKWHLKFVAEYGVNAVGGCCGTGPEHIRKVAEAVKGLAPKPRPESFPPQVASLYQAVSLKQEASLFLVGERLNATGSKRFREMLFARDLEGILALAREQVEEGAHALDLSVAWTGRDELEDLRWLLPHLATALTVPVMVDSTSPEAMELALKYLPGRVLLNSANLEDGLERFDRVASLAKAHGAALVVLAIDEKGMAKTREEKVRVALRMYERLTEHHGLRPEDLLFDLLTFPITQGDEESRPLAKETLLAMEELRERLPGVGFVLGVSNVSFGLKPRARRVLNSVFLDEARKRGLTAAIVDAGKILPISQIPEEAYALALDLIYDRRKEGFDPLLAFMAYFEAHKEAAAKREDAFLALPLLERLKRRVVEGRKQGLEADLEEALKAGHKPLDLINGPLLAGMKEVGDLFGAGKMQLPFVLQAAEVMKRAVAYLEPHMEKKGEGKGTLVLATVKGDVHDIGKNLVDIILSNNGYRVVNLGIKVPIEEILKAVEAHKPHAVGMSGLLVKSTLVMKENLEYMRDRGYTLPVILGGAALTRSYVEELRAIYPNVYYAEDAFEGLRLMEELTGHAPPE

tMS^ΔN35Hcy (tMS^Hcy) = target: T3, tMS^ΔN35Hcy (tMS^Hcy) (Thermus thermophilus, UniProt Q5SKM5); assay: UV-Vis methylcobalamin consumption; assay type: biochemical; conditions: 100 µM homocysteine; 20 µM free MeCbl; 2 µM enzyme; pH 7.4, 0.5 mM TCEP, 50 °C
T3 construct: gene TTHA0618; isolated Hcy domain lacking N-terminal 35 residues; N-terminal His6-TEV tag, no cut described; E. coli BL21star(DE3)
T3 sequence (Q5SKM5 36-340 limits assumed): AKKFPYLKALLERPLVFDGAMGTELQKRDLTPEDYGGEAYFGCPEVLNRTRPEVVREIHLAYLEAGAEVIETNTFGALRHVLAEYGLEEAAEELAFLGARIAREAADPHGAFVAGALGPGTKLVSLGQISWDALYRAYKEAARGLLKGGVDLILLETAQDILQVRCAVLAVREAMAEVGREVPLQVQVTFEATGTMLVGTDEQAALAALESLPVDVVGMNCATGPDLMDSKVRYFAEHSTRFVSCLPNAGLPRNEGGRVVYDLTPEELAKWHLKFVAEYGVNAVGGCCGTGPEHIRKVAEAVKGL

tMS^HcyFolCapCob [2] = target: T4, tMS^HcyFolCapCob (Thermus thermophilus, UniProt Q5SKM5, F110A/E123A/E124A/R268A/D651A/P652A/G653A/D759A/N774H/R826A); assay: X-ray crystal structure, […] Å; assay type: binding; conditions: Hcy-on; aeCbl holoenzyme; co-purified; Fol domain; mutant 2
T4 construct: gene TTHA0618; Hcy-Fol-Cap-Cob tetradomain, lacks Act domain; N-terminal His6 tag cut with TEV; about 95 kDa monomer; E. coli BL21star(DE3)
T4 sequence (Q5SKM5 1-877 F110A/E123A/E124A/R268A/D651A/P652A/G653A/D759A/N774H/R826A): T2 sequence (Q5SKM5 1-877 F110A/E123A/E124A/Y296A/D651A/P652A/G653A) with R268A, A296Y, D759A, N774H, R826A

SMILES	UV-Vis methylcobalamin consumption (tMS^HcyFol)	X-ray crystal structure, 2.45 Å (tMS^HcyFolCapCob [1]; Hcy domain site)	UV-Vis methylcobalamin consumption (tMS^ΔN35Hcy (tMS^Hcy))	X-ray crystal structure, 2.45 Å (tMS^HcyFolCapCob [1]; co-purified, Fol domain)	X-ray crystal structure, 2.38 Å (tMS^HcyFolCapCob [2])
N[C@@H](CCS)C(=O)O [homocysteine]	consumption of methylcobalamin when bound to tMS^CapCob was observed with tMS^HcyFol	HCY was found bound in the pre-Hcy-on structure (9CBP)	Consumption of exogenous methylcobalamin was detected in the presence of both tMS ^HcyFol and tMS^Hcy	–	–
Nc1nc2c(c(=O)[nH]1)N[C@@H](CNc1ccc(C(=O)N[C@@H](CCC(=O)O)C(=O)O)cc1)CN2 [tetrahydrofolate]	–	–	–	tetradomain did yield a folate-bound structure, modelled as tetrahydrofolate (Ligand ID THG)	pre-Hcy-on (Cap-on, 9CBP) and Hcy-on (9CBR) states copurified with the folate demethylation byproduct
